Measurements: patent EP0326331B1, “Substituted quinolines and cinnolines” (Dow AgroSciences LLC, priority 1988, dated 1989)
Read-outs that look alike come from different tables or passages of the source.

How the values were obtained:
Type in all cases: in vivo
[1] = tested on: Pyricularia oryzae (rice blast); assay: whole plant or invertebrate; conditions: for RICE BLAST: disease control rating, foliar spray on rice, 400 ppm (+++ at 100 ppm); for pest or weed control at 400 ppm: Pyricularia oryzae, foliar, read-out: RICE BLAST, Test 1, foliar spray on rice, disease control rating at 400 ppm / 100 ppm
[2] = tested on: plant pathogens; assay: Fungicidal efficacy against a broad spectrum of plant pathogens (summary of screen); conditions: summary statement in the description
[3] = tested on: corn rootworm; assay: Mite/insect screen, CRW; conditions: percent mortality; for mortality at 24 ppm / mortality at 12 ppm: read-out: CRW RESULTS %
Method in brief: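 Each compound, taken up in an emulsifier-containing acetone/alcohol mixture and diluted in water to the stated concentrations, was assessed for percent kill following standard exposure times.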

[4] = tested on: southern armyworm (Spodopetra eridania Cramer); assay: Mite/insect screen, SAW; conditions: Spodoptera eridania, percent mortality, read-out: SAW RESULTS %
Method in brief: (§1)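 Activity is expressed as percent mortality at the indicated spray concentrations. Plants are sprayed to runoff on upper and lower leaf surfaces with aqueous dilutions of an acetone/alcohol emulsifiable formulation, then dried for one hour.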

[5] = tested on: Twospotted spider mites (Tetranychus urticae Koch); assay: Mite/insect screen, SM; conditions: for mortality at 400 ppm / mortality at 200 ppm: Tetranychus urticae, read-out: SM RESULTS %; for mortality at 400 ppm / mortality at 200 ppm / SM RESULTS %: percent mortality
Method in brief: as §1

[6] = tested on: Puccinia recondita tritici (leaf rust); assay: Test 1 greenhouse foliar spray screen, leaf rust on wheat; conditions: for LEAF RUST: disease control rating, foliar spray on wheat, 400 ppm (+++ at 100 ppm); for pest or weed control at 400 ppm: Puccinia recondita, foliar, Test 1, foliar spray on wheat, disease control rating at 400 ppm / 100 ppm
[7] = tested on: Erysiphe graminis tritici (powdery mildew); assay: Test 1 greenhouse foliar spray screen, powdery mildew on wheat; conditions: for POWD MDEW: disease control rating, foliar spray on wheat, 400 ppm (+++ at 100 ppm); for pest or weed control at 400 ppm: Blumeria graminis, foliar, Test 1, foliar spray on wheat, disease control rating at 400 ppm / 100 ppm, read-out: POWD MDEW
[8] = tested on: Pseudoperonospora cubensis (downy mildew); assay: Test 1 greenhouse foliar spray screen, downy mildew on squash; conditions: for DOWN MDEW: disease control rating, foliar spray on squash, 400 ppm (+++ at 100 ppm); for pest or weed control at 400 ppm: Pseudoperonospora cubensis, foliar, Test 1, foliar spray on squash, disease control rating at 400 ppm / 100 ppm, read-out: DOWN MDEW
[9] = tested on: Botrytis cinerea (gray mold); assay: Test 1 greenhouse foliar spray screen, gray mold on grape berries; conditions: for GRAY MOLD: disease control rating, spray on grape berries, 400 ppm (+++ at 100 ppm); for pest or weed control at 400 ppm: Botrytis cinerea, foliar, Test 1, spray on grape berries, disease control rating at 400 ppm / 100 ppm
[10] = tested on: melon aphids (Aphis gossypii Glover); assay: Mite/insect screen, MA; conditions: percent mortality; for mortality at 400 ppm / mortality at 200 ppm: Aphis gossypii, read-out: MA RESULTS %
Method in brief: as §1

[11] = tested on: Venturia inaequalis (apple scab); assay: Test 1 greenhouse foliar spray screen, apple scab on apple seedling; conditions: for APPL SCAB: disease control rating, foliar spray on apple seedling, 400 ppm (+++ at 100 ppm)
[12] = tested on: Septoria tritici (leaf blotch); assay: Test 1 greenhouse foliar spray screen, leaf blotch on wheat; conditions: for LEAF BLOT: disease control rating, foliar spray on wheat, 400 ppm (+++ at 100 ppm)
[13] = tested on: Cercospora beticola (leaf spot); assay: Test 1 greenhouse foliar spray screen, leaf spot on sugar beet; conditions: for LEAF SPOT: disease control rating, foliar spray on sugar beet, 400 ppm (+++ at 100 ppm)
[14] = foliar, rate 400 ppm, foliar spray on squash
[15] = foliar, rate 200 ppm, foliar spray on squash

| Compound | RICE BLAST [1] | activity against a broad spectrum of plant pathogens [2] | LEAF RUST [6] | POWD MDEW [7] | DOWN MDEW [8] | GRAY MOLD [9] | pest or weed control at 400 ppm [1] [%] | mortality at 24 ppm ([3]; CRW rate 24.00 ppm) [%] | mortality at 400 ppm [4, 14] [%] | mortality at 400 ppm [5, 14] [%] | pest or weed control at 400 ppm [6] [%] | pest or weed control at 400 ppm [7] [%] | pest or weed control at 400 ppm [8] [%] | pest or weed control at 400 ppm [9] [%] | mortality at 400 ppm [10, 14] [%] | mortality at 12 ppm ([3]; CRW RATE 12.00 PPM) [%] | mortality at 200 ppm ([5]; SAW, SM & MA RATE 200 PPM) [%] | mortality at 200 ppm ([10]; SAW, SM & MA RATE 200 PPM) [%] | other results |
| --- | --- | --- | --- | --- | --- | --- | --- | --- | --- | --- | --- | --- | --- | --- | --- | --- | --- | --- | --- |
| Fc1cccc2c(NCCc3cccc(-c4ccccc4)c3)ccnc12 [Example 72, N-[2-(1,1'-biphenyl)-3-ylethyl]-8-fluoro-4-quinolinamine] | +++ (90-100% control at 100 ppm) | particularly excellent activity | +++ (90-100% control at 100 ppm) | ++ (90-100% control at 400 ppm) | +++ (90-100% control at 100 ppm) | - (0-19% control at 400 ppm) | – | – | – | – | – | – | – | – | – | – | – | – | mortality at 24 ppm ([3]; CRW RATE 24.00 PPM): 0%; mortality at 400 ppm ([4]; SAW, SM & MA RATE 400 PPM): 0%; mortality at 400 ppm ([5]; SAW, SM & MA RATE 400 PPM): 0%; mortality at 400 ppm ([10]; SAW, SM & MA RATE 400 PPM): 0% |
| CC(C)c1ccc(CCCc2ccnc3c(F)cccc23)cc1 [Example 256, 8-fluoro-4-[3-(4-(i-propyl)phenyl)propyl]quinoline] | – | particularly excellent activity | – | – | – | – | 90 to 100 | 100 | 100 | 0 | 90 to 100 | 90 to 100 | 90 to 100 | 0 to 19 | 0 | – | – | – | – |
| Fc1cccc2c(OCCc3ccc(Cl)cc3)ccnc12 [Example 209, 4-[2-(4-chlorophenyl)-ethoxy]-8-fluoroquinoline] | – | particularly excellent activity | – | – | – | – | 90 to 100 | – | – | – | 90 to 100 | 90 to 100 | 90 to 100 | 0 to 19 | – | – | – | – | pest or weed control at 400 ppm ([11]; Venturia inaequalis, Test 1, foliar spray on apple seedling, disease control rating at 400 ppm / 100 ppm, read-out: APPL SCAB): 20 to 89%; CRW RESULTS % ([3]; CRW rate 12.00 ppm): 0%; mortality at 12 ppm ([3]; CRW rate 12.00 ppm): 0%; mortality at 200 ppm [5, 15]: 0%; SM RESULTS % ([5]; rate 200 ppm, foliar spray on squash): 0%; pest or weed control at 400 ppm ([12]; Zymoseptoria tritici, Test 1, foliar spray on wheat, disease control rating at 400 ppm / 100 ppm, read-out: LEAF BLOT): 90 to 100%; pest or weed control at 400 ppm ([13]; Cercospora beticola, Test 1, foliar spray on sugar beet, disease control rating at 400 ppm / 100 ppm): 90 to 100% |
| Fc1cccc2c(NCCc3cccc(Oc4ccccc4)c3)ccnc12 [Example 39, 8-fluoro-N-[2-(3-phenoxyphenyl)ethyl]-4-quinolinamine] | +++ (90-100% control at 100 ppm) | particularly excellent activity | +++ (90-100% control at 100 ppm) | +++ (90-100% control at 100 ppm) | +++ (90-100% control at 100 ppm) | - (0-19% control at 400 ppm) | – | – | – | – | – | – | – | – | – | 0 | 0 | 0 | mortality at 24 ppm ([3]; CRW RATE 24.00 PPM): 0%; mortality at 200 ppm ([4]; SAW, SM & MA RATE 200 PPM): 0%; mortality at 400 ppm ([4]; SAW, SM & MA RATE 400 PPM): 0%; mortality at 400 ppm ([5]; SAW, SM & MA RATE 400 PPM): 0%; mortality at 400 ppm ([10]; SAW, SM & MA RATE 400 PPM): 0% |
| Fc1ccccc1CCOc1ccnc2c(F)cccc12 [Example 225, 8-fluoro-4-[2-(2-fluorophenyl)ethoxy]quinoline] | – | particularly excellent activity | – | – | – | – | 90 to 100 | 0 | 0 | 0 | 90 to 100 | 90 to 100 | 90 to 100 | 0 to 19 | 0 | – | – | – | – |
| Fc1cccc2c(OCCc3ccccc3C(F)(F)F)ccnc12 [Example 206, 8-fluoro-4-[2-(2-(trifluoromethyl)phenyl)ethoxy]quinoline] | – | particularly excellent activity | – | – | – | – | 90 to 100 | 0 | 0 | 0 | 90 to 100 | 90 to 100 | 90 to 100 | 0 to 19 | 0 | – | – | – | – |
| CC(C)c1ccc(CCOc2ccnc3c(F)cccc23)cc1 [Example 238, 8-fluoro-4-[2-(4-(i-propyl)phenyl)ethoxy]quinoline] | – | particularly excellent activity | – | – | – | – | 90 to 100 | 0 | 100 | 0 | 90 to 100 | 90 to 100 | 90 to 100 | 20 to 89 | 0 | – | – | – | mortality at 12 ppm ([3]; CRW rate 12.00 ppm): 0%; mortality at 200 ppm [4, 15]: 0%; mortality at 200 ppm [5, 15]: 100%; activity as miticides ([5]; summary statement in the description): particularly excellent activity; mortality at 200 ppm [10, 15]: 100% |
| Fc1cccc2c(NCCc3ccc(Cl)cc3Cl)ccnc12 [Example 76, N-[2-(2,4-dichlorophenyl)ethyl]-8-fluoro-4-quinolinamine] | +++ (90-100% control at 100 ppm) | particularly excellent activity | +++ (90-100% control at 100 ppm) | ++ (90-100% control at 400 ppm) | +++ (90-100% control at 100 ppm) | - (0-19% control at 400 ppm) | – | – | – | – | – | – | – | – | – | 0 | 0 | 0 | APPL SCAB [11]: + (20-89% control at 400 ppm); CRW RESULTS % ([3]; CRW RATE 12.00 PPM): 0%; SM RESULTS % ([5]; SAW, SM & MA RATE 200 PPM): 0%; LEAF BLOT [12]: +++ (90-100% control at 100 ppm); LEAF SPOT [13]: - (0-19% control at 400 ppm); MA RESULTS % ([10]; SAW, SM & MA RATE 200 PPM): 0% |
| Cc1cccc(CCOc2ccnc3c(F)cccc23)c1 [Example 224, 8-fluoro-4-[2-(3-methylphenyl)ethoxy]quinoline] | – | particularly excellent activity | – | – | – | – | 90 to 100 | 0 | 0 | 0 | 90 to 100 | 90 to 100 | 90 to 100 | 0 to 19 | 0 | – | – | – | – |
| FC(F)(F)c1cc(C(F)(F)F)c2c(NCCc3ccccc3)ccnc2c1 [Example 70, N-(2-phenylethyl)-5,7-bis-(trifluoromethyl)-4-quinolinamine] | + (20-89% control at 400 ppm) | – | + (20-89% control at 400 ppm) | +++ (90-100% control at 100 ppm) | - (0-19% control at 400 ppm) | - (0-19% control at 400 ppm) | – | – | – | – | – | – | – | – | – | 0 | 0 | 0 | APPL SCAB [11]: - (0-19% control at 400 ppm); mortality at 200 ppm ([4]; SAW, SM & MA RATE 200 PPM): 0%; LEAF BLOT [12]: - (0-19% control at 400 ppm); LEAF SPOT [13]: - (0-19% control at 400 ppm) |
